The source of these data is patent publication US10059689B2, “Substituted heteroaryl compounds and methods of use” (Sunshine Lake Pharma Co., Ltd., priority 2014, dated 2018).

One experiment concerns the target T1, Aurora-A (h) (Homo sapiens, UniProt O14965).
T1 construct: purchased Millipore UK Ltd (contract assay service)
T1 sequence (O14965 1-403): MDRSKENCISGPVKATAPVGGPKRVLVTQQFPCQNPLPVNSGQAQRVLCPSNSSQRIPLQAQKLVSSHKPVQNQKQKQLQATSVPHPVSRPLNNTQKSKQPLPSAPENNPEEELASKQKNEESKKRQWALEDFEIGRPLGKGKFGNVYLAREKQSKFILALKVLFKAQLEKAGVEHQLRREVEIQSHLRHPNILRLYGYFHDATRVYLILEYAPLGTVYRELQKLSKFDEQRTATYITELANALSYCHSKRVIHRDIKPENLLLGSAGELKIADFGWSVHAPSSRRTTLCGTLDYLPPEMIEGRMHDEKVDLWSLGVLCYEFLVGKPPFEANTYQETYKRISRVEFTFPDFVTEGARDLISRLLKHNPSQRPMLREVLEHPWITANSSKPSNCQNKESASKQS
The experiment is described as follows: Aurora-A (h) kinase assay. The class given is biochemical. As for the experimental part:
(§1) Kinase assays can be performed by measurement of incorporation of γ-33P ATP into immobilized myelin basic protein (MBP). High binding white 384 well plates (Greiner) are coated with MBP (Sigma #M-1891) by incubation of 60 μL/well of 20 μg/mL MBP in Tris-buffered saline (TBS; 50 mM Tris pH 8.0, 138 mM NaCl, 2.7 mM KCl) for 24 h at 4° C. Plates are washed 3× with 100 μL TBS. Kinase reactions are carried out in a total volume of 34 μL in kinase buffer (according to the need to make, for example, 5 mM Hepes pH 7.6, 15 mM NaCl, 0.01% bovine gamma globulin (Sigma #I-5506), 10 mM MgCl2, 1 mM DTT, 0.02% TritonX-100). Compound dilutions are performed in DMSO and added to assay wells to a final DMSO concentration of 1%. Each data point is measured in duplicate, and at least two duplicate assays are performed for each individual compound determination. Enzyme is added to final concentrations of 10 nM or 20 nM, for example. A mixture of unlabeled ATP and γ-33P ATP is added to start the reaction (2×10^6 cpm of γ-33P ATP per well (3000 Ci/mmole) and 10 μM unlabeled ATP, typically. The reactions are carried out for 1 h at room temperature with shaking Plates are washed 7× with TBS, followed by the addition of 50 μL/well scintillation fluid (Wallac). Plates are read using a Wallac Trilux counter. This is only one format of such assays; various other formats are possible, as known to one skilled in the art.
The above assay procedure can be used to determine the IC50 for inhibition and/or the inhibition constant, Ki. The IC50 is defined as the concentration of compound required to reduce the enzyme activity by 50% under the condition of the assay. The IC50 value is estimated by preparing a 10 point curve using a ½ log dilution series (for example, a typical curve may be prepared using the following compound concentrations: 3 μM, 1 μM, 0.3 μM, 0.1 μM, 0.03 μM, 0.01 μM, 0.003 μM, 0.001 μM, 0.0003 μM and 0 μM).
Aurora-A (h) is incubated with 8 mM MOPS pH 7.0, 0.2 mM EDTA, 200 μM LRRASLG (Kemptide), 10 mM MgAcetate and [γ-^33P-ATP] […]

The target in a further experiment is T2, TYK2 (h) (Homo sapiens, UniProt P29597).
T2 construct: purchased Millipore UK Ltd (contract assay service)
The experiment is described as follows: TYK2 (h) kinase assay. The class given is biochemical. As for the experimental part:
as §1, with “Enzyme is added to final concentrations of 10 nM or 20 nM, for example.” left out, “art. […]” for “art.”

As a reminder, the IC50 is the concentration that gives 50% inhibition. Read a low IC50 as greater potency.

T2 sequence (P29597 whole entry): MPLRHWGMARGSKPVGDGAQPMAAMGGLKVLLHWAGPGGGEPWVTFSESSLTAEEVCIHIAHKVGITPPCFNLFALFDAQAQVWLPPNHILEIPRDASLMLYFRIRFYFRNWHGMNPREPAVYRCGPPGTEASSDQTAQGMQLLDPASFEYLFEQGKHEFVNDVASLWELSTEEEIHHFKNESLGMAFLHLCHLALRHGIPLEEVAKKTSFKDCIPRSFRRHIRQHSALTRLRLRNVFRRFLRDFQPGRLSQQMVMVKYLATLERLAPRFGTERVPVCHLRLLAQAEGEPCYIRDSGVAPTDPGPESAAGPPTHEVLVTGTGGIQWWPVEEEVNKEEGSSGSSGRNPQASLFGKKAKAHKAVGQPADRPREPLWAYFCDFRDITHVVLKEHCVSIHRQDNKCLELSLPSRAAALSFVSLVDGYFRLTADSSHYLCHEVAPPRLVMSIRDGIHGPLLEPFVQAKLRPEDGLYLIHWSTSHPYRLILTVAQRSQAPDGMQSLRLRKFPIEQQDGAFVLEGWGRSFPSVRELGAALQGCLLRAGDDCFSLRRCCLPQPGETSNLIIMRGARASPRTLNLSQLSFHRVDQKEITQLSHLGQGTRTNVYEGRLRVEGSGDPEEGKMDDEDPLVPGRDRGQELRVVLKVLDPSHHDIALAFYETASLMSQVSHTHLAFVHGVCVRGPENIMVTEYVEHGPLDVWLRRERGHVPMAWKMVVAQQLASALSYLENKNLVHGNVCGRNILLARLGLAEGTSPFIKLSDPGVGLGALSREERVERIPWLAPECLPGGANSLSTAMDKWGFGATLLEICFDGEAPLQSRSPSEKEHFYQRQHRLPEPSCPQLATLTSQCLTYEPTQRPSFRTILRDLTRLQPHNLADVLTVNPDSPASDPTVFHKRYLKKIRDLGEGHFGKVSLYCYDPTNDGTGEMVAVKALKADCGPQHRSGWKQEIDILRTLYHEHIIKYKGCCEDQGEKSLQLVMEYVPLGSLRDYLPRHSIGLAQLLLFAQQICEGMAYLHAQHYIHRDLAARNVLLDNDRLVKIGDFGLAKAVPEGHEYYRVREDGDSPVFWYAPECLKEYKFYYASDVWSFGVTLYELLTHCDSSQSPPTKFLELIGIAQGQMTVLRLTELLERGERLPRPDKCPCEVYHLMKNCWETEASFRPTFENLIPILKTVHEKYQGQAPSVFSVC

On to `Cn1cc(Nc2ncc(Cl)c(NC3CCN(c4ccc(C#N)cn4)CC3)n2)cn1` [Ex. 1, 6-(4-((5-chloro-2-((1-methyl-1H-pyrazol-4-yl)amino)pyrimidin-4-yl)amino)piperidin-1-yl)nicotinonitrile], for which it took 68 nM to reach half-maximal inhibition at Aurora-A (h) (IC50).

Regarding `Cc1c2ccc(Nc3ncc(Cl)c(NC4CCN(c5ccc(C#N)cn5)CC4)n3)cc2nn1C` [Ex. 4], the IC50 at Aurora-A (h) was found to be 503 nM; against TYK2 (h), 2 nM.

On to `CN(c1nc(Nc2cnn(C)c2)ncc1Cl)C1CCN(c2ccc(C#N)cn2)CC1` [Ex. 5, 6-(4-((5-chloro-2-((1-methyl-1H-pyrazol-4-yl)amino)pyrimidin-4-yl) (methyl)amino)piperidin-1-yl)nicotinonitrile], for which the half-maximal inhibitory concentration (IC50) against Aurora-A (h) was found to be 66 nM; against TYK2 (h), 22 nM.
